Measured values taken from the supplement of paper PMC10307832.

Tests used:
Assay in all cases: relative viability (nuclei count vs DMSO), 5 days (fraction); higher = more cells survive
[1] = compound: CCC1=CN=CN=C1N2CCN(CC2)CC3=NC4=C(N3)C=C(C=C4)C(F)(F)F + CC1(C)CCC(c2ccc(Cl)cc2)=C(CN2CCN(c3ccc(C(=O)NS(=O)(=O)c4ccc(N[C@H](CCN5CCOCC5)CSc5ccccc5)c(S(=O)(=O)C(F)(F)F)c4)cc3)CC2)C1 [Navitoclax] (partner 0.5 µM)
In short: (§1)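 Each reported value is a median over duplicate plates. It expresses relative viability: treated-well nuclei count divided by vehicle-well nuclei count. Lung cancer cell lines in 1536-well plates were dosed by pin tool a day after seeding, alone with one drug or with a fixed anchor-drug dose plus five library-drug doses (not always all listed) in √10 steps, and nuclei were counted after 5 days.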

[2] = compound: CCn1c(-c2nonc2N)nc2cnc(Oc3cccc(NC(=O)c4ccc(OCCN5CCOCC5)cc4)c3)cc21 + CC(=O)c1c(C)c2cnc(Nc3ccc(N4CCNCC4)cn3)nc2n(C2CCCC2)c1=O [Palbociclib] (partner 0.5 µM)
In short: as §1

[3] = compound: CCn1c(-c2nonc2N)nc2cnc(Oc3cccc(NC(=O)c4ccc(OCCN5CCOCC5)cc4)c3)cc21 + CC1(C)CCC(c2ccc(Cl)cc2)=C(CN2CCN(c3ccc(C(=O)NS(=O)(=O)c4ccc(N[C@H](CCN5CCOCC5)CSc5ccccc5)c(S(=O)(=O)C(F)(F)F)c4)cc3)CC2)C1 [Navitoclax] (partner 0.5 µM)
In short: as §1

Mirin + Pemetrexed = compound: N=C1NC(=O)/C(=C/c2ccc(O)cc2)S1 [Mirin] + Nc1nc2[nH]cc(CCc3ccc(C(=O)N[C@@H](CCC(=O)O)C(=O)O)cc3)c2c(=O)[nH]1 [Pemetrexed] (partner 0.2 µM)
In short: as §1

Cell Line LC-2-ad has a relative viability ([1]; first compound 0.04 µM) of 0.459, a relative viability ([1]; first compound 0.1265 µM) of 0.603 and a relative viability ([1]; first compound 0.4 µM) of 0.522. It also gave a relative viability ([1]; first compound 1.265 µM) of 0.324, a relative viability ([1]; first compound 4 µM) of 0.351 and a relative viability ([2]; first compound 0.04 µM) of 0.563. The relative viability ([2]; first compound 0.1265 µM) was 0.469, the relative viability ([2]; first compound 0.4 µM) was 0.455 and the relative viability ([2]; first compound 1.265 µM) was 0.355. The relative viability ([2]; first compound 4 µM) was 0.307, the relative viability ([3]; first compound 0.04 µM) was 0.522 and the relative viability ([3]; first compound 0.1265 µM) was 0.439. For the same cell line, the relative viability ([3]; first compound 0.4 µM) was 0.508, the relative viability ([3]; first compound 1.265 µM) was 0.214 and the relative viability ([3]; first compound 4 µM) was 0.167. The relative viability (Mirin + Pemetrexed; first compound 0.25 µM) was 0.266, the relative viability (Mirin + Pemetrexed; first compound 0.7906 µM) was 0.271 and the relative viability (Mirin + Pemetrexed; first compound 2.5 µM) was 0.254. The relative viability (Mirin + Pemetrexed; first compound 7.906 µM) was 0.288 and the relative viability (Mirin + Pemetrexed; first compound 25 µM) was 0.264.

NCI-H1755 was tested, and the relative viability ([1]; first compound 0.04 µM) was 1.01, the relative viability ([1]; first compound 0.1265 µM) was 0.947 and the relative viability ([1]; first compound 0.4 µM) was 0.955. For the same cell line, the relative viability ([1]; first compound 1.265 µM) was 0.606, the relative viability ([1]; first compound 4 µM) was 0.889 and the relative viability ([2]; first compound 0.04 µM) was 0.457. It also gave a relative viability ([2]; first compound 0.1265 µM) of 0.46, a relative viability ([2]; first compound 0.4 µM) of 0.397 and a relative viability ([2]; first compound 1.265 µM) of 0.454. For the same cell line, the relative viability ([2]; first compound 4 µM) was 0.424, the relative viability ([3]; first compound 0.04 µM) was 1.06 and the relative viability ([3]; first compound 0.1265 µM) was 1.01. For the same cell line, the relative viability ([3]; first compound 0.4 µM) was 0.944, the relative viability ([3]; first compound 1.265 µM) was 0.992 and the relative viability ([3]; first compound 4 µM) was 0.996. For the same cell line, the relative viability (Mirin + Pemetrexed; first compound 0.25 µM) was 0.38, the relative viability (Mirin + Pemetrexed; first compound 0.7906 µM) was 0.402 and the relative viability (Mirin + Pemetrexed; first compound 2.5 µM) was 0.404. For the same cell line, the relative viability (Mirin + Pemetrexed; first compound 7.906 µM) was 0.348 and the relative viability (Mirin + Pemetrexed; first compound 25 µM) was 0.384.

In the case of EPLC-272H, the relative viability ([1]; first compound 0.04 µM) is reported as 0.973, the relative viability ([1]; first compound 0.1265 µM) is reported as 1.05 and the relative viability ([1]; first compound 0.4 µM) is reported as 1.11. It also gave a relative viability ([1]; first compound 1.265 µM) of 1.07, a relative viability ([1]; first compound 4 µM) of 1.31 and a relative viability ([2]; first compound 0.04 µM) of 0.391. For the same cell line, the relative viability ([2]; first compound 0.1265 µM) was 0.406, the relative viability ([2]; first compound 0.4 µM) was 0.302 and the relative viability ([2]; first compound 1.265 µM) was 0.316. It also gave a relative viability ([2]; first compound 4 µM) of 0.296, a relative viability ([3]; first compound 0.04 µM) of 1.22 and a relative viability ([3]; first compound 0.1265 µM) of 1.07. For the same cell line, the relative viability ([3]; first compound 0.4 µM) was 1.1, the relative viability ([3]; first compound 1.265 µM) was 1.05 and the relative viability ([3]; first compound 4 µM) was 1.1. For the same cell line, the relative viability (Mirin + Pemetrexed; first compound 0.25 µM) was 0.371, the relative viability (Mirin + Pemetrexed; first compound 0.7906 µM) was 0.307 and the relative viability (Mirin + Pemetrexed; first compound 2.5 µM) was 0.309. For the same cell line, the relative viability (Mirin + Pemetrexed; first compound 7.906 µM) was 0.323 and the relative viability (Mirin + Pemetrexed; first compound 25 µM) was 0.192.

Work on NCI-H1437 yielded a relative viability ([1]; first compound 0.04 µM) of 1.09, a relative viability ([1]; first compound 0.1265 µM) of 1 and a relative viability ([1]; first compound 0.4 µM) of 0.944. It also gave a relative viability ([1]; first compound 1.265 µM) of 0.822, a relative viability ([1]; first compound 4 µM) of 0.724 and a relative viability ([2]; first compound 0.04 µM) of 0.355. It also gave a relative viability ([2]; first compound 0.1265 µM) of 0.367, a relative viability ([2]; first compound 0.4 µM) of 0.389 and a relative viability ([2]; first compound 1.265 µM) of 0.279. For the same cell line, the relative viability ([2]; first compound 4 µM) was 0.331, the relative viability ([3]; first compound 0.04 µM) was 1.1 and the relative viability ([3]; first compound 0.1265 µM) was 1.09. It also gave a relative viability ([3]; first compound 0.4 µM) of 1.02, a relative viability ([3]; first compound 1.265 µM) of 0.747 and a relative viability ([3]; first compound 4 µM) of 0.607. It also gave a relative viability (Mirin + Pemetrexed; first compound 0.25 µM) of 0.313, a relative viability (Mirin + Pemetrexed; first compound 0.7906 µM) of 0.351 and a relative viability (Mirin + Pemetrexed; first compound 2.5 µM) of 0.377. It also gave a relative viability (Mirin + Pemetrexed; first compound 7.906 µM) of 0.345 and a relative viability (Mirin + Pemetrexed; first compound 25 µM) of 0.31.

With EKVX the relative viability ([1]; first compound 0.04 µM) was 0.96, the relative viability ([1]; first compound 0.1265 µM) was 0.96 and the relative viability ([1]; first compound 0.4 µM) was 0.886. For the same cell line, the relative viability ([1]; first compound 1.265 µM) was 0.724, the relative viability ([1]; first compound 4 µM) was 0.977 and the relative viability ([2]; first compound 0.04 µM) was 0.566. The relative viability ([2]; first compound 0.1265 µM) was 0.368, the relative viability ([2]; first compound 0.4 µM) was 0.365 and the relative viability ([2]; first compound 1.265 µM) was 0.348. It also gave a relative viability ([2]; first compound 4 µM) of 0.329, a relative viability ([3]; first compound 0.04 µM) of 1.13 and a relative viability ([3]; first compound 0.1265 µM) of 1.01. The relative viability ([3]; first compound 0.4 µM) was 0.861, the relative viability ([3]; first compound 1.265 µM) was 0.895 and the relative viability ([3]; first compound 4 µM) was 0.831. It also gave a relative viability (Mirin + Pemetrexed; first compound 0.25 µM) of 0.379, a relative viability (Mirin + Pemetrexed; first compound 0.7906 µM) of 0.318 and a relative viability (Mirin + Pemetrexed; first compound 2.5 µM) of 0.397. It also gave a relative viability (Mirin + Pemetrexed; first compound 7.906 µM) of 0.502 and a relative viability (Mirin + Pemetrexed; first compound 25 µM) of 0.346.

In the case of NCI-H1651, the relative viability ([1]; first compound 0.04 µM) is reported as 1.06, the relative viability ([1]; first compound 0.1265 µM) is reported as 0.875 and the relative viability ([1]; first compound 0.4 µM) is reported as 1.04. It also gave a relative viability ([1]; first compound 1.265 µM) of 0.941, a relative viability ([1]; first compound 4 µM) of 1.01 and a relative viability ([2]; first compound 0.04 µM) of 0.587. For the same cell line, the relative viability ([2]; first compound 0.1265 µM) was 0.584, the relative viability ([2]; first compound 0.4 µM) was 0.476 and the relative viability ([2]; first compound 1.265 µM) was 0.369. The relative viability ([2]; first compound 4 µM) was 0.432, the relative viability ([3]; first compound 0.04 µM) was 1.17 and the relative viability ([3]; first compound 0.1265 µM) was 1.14. The relative viability ([3]; first compound 0.4 µM) was 1.05, the relative viability ([3]; first compound 1.265 µM) was 0.925 and the relative viability ([3]; first compound 4 µM) was 0.471. For the same cell line, the relative viability (Mirin + Pemetrexed; first compound 0.25 µM) was 0.241, the relative viability (Mirin + Pemetrexed; first compound 0.7906 µM) was 0.532 and the relative viability (Mirin + Pemetrexed; first compound 2.5 µM) was 0.599. The relative viability (Mirin + Pemetrexed; first compound 7.906 µM) was 0.532 and the relative viability (Mirin + Pemetrexed; first compound 25 µM) was 0.612.

With HCC-15 the relative viability ([1]; first compound 0.04 µM) was 0.702, the relative viability ([1]; first compound 0.1265 µM) was 0.67 and the relative viability ([1]; first compound 0.4 µM) was 0.757. For the same cell line, the relative viability ([1]; first compound 1.265 µM) was 0.694, the relative viability ([1]; first compound 4 µM) was 0.71 and the relative viability ([2]; first compound 0.04 µM) was 0.758. It also gave a relative viability ([2]; first compound 0.1265 µM) of 0.665, a relative viability ([2]; first compound 0.4 µM) of 0.673 and a relative viability ([2]; first compound 1.265 µM) of 0.596. For the same cell line, the relative viability ([2]; first compound 4 µM) was 0.7, the relative viability ([3]; first compound 0.04 µM) was 0.876 and the relative viability ([3]; first compound 0.1265 µM) was 0.636. It also gave a relative viability ([3]; first compound 0.4 µM) of 0.693, a relative viability ([3]; first compound 1.265 µM) of 0.586 and a relative viability ([3]; first compound 4 µM) of 0.708. The relative viability (Mirin + Pemetrexed; first compound 0.25 µM) was 0.217, the relative viability (Mirin + Pemetrexed; first compound 0.7906 µM) was 0.233 and the relative viability (Mirin + Pemetrexed; first compound 2.5 µM) was 0.218. It also gave a relative viability (Mirin + Pemetrexed; first compound 7.906 µM) of 0.196 and a relative viability (Mirin + Pemetrexed; first compound 25 µM) of 0.203.
